Here are results for one compound from patent publication US6387907B1, “Use of serotonin agonists to alleviate disordered breathing episodes in a mammal” (The Trustees of the University of Pennsylvania, priority 1997, dated 2002).

Common to all, as to type: in vivo, English bulldog
For assay [1], the system named is English bulldogs. The assay is described as follows: Diaphragm (DIA) EMG activity during wakefulness after i.v. serotonin antagonist. As for the experimental part:
Five diaphragm electromyographic (DIA EMG) electrodes were implanted in the costal musculature of the right hemidiaphragm 7 to 9 centimeters lateral to the xyphoid process. Three other electrodes were embedded into the right sternohyoid (SH) muscle and, three more were embedded into the right geniohyoid (GH) muscle. Both SH and GH muscles are readily palpable in the English bulldog.
(§1) All studies were conducted using an unrestrained dog, either housed within a well-ventilated, electronically shielded, clear Plexiglass™ recording chamber or seated atop a table in the recording room. In either case, an investigator remained with the dog throughout the study to observe the dog's head and neck movements and to document the behavioral state of the dog. EMG signals were band-pass filtered at 50 to 2,000 Hertz. DIA EMG signals were passed through an analog EKG blanker (CWE EKG blanker; CWE, Ardmore, Pa.) and then through a third-order Paynter filter (CWE MA) having a 100-millisecond time constant to obtain a moving average of the DIA EMG. Signals of the SH and GH EMG were also passed through Paynter filters with the same time constants (100 ms) to obtain moving averages of these signals. Oxyhemoglobin saturation was measured continuously with a Biox IIA oximeter attached to the dog's pinna. Signals for the GH EMG, GH moving average (MA), SH EMG, SH MA, DIA EMG, DIA MA, and oxyhemoglobin saturations were recorded polygraphically (10 millimeters per second) using a chart recorder with high frequency response, i.e., as much as 10 kHz (Gould ES1000; Gould Instruments, Cleveland, Ohio). Signals were also recorded on analog tape using an eight-channel FM tape recorder (A. R. Vetter, Roseburg, Pa.).
(§2) After obtaining baseline recordings of all variables for at least 5 minutes during quiet wakefulness and after obtaining recordings during the 5 minutes following administration of a saline control injection, 0.25 to 0.50 milligrams per kilogram body weight of one of the serotonin antagonists was administered to each dog through a peripheral intravenous line. All variables were continuously recorded. Injections were repeated every 6 minutes either until a total dose of 1 milligram per kilogram body weight had been administered or until the oxygen saturations fell below 85%. These limits were deemed to ensure the dogs' safety, based on an initial study using one dog. This dog, EBD-G was hypoxic at baseline and developed profound reductions in UAW muscle activity with desaturations to 75% after a total dose of 1.0 milligram per kilogram body weight of methysergide. The interval between repeated injections was selected to be 6 minutes to allow for 5 minute sampling periods for each dose. The duration of action of serotonin antagonists is known to be greater than 60 minutes (Bredberg et al., supra; Devaud et al., supra).
The effects of serotonin antagonists on diaphragm activity were similarly analyzed. Briefly, the measures of diaphragm activity were the peak amplitudes for all respiratory bursts in each condition. […] Acquisition of these measures has also been previously described (Hendricks et al., 1991, Am. Rev. Respir. Dis. 144:1112-1120). Mean values across all respiratory bursts of a 5 minute sample period were determined for each dog, and these values were used to perform repeated measures of ANOVA comparing baseline values with post-administration values.

Assay [2] has as its system English bulldogs. Nature of the assay: Waking oxyhemoglobin saturation (SaO2) after i.v. serotonin antagonist. The following applies: mean±SE. As for the experimental part: as §1, §2
The effects of ritanserin and methysergide on oxyhemoglobin saturations were analyzed in a similar fashion; i.e., repeated measures of ANOVA for baseline and drug dose conditions. Oxyhemoglobin saturation was measured every 10 scans.

The subject of assay [3] is English bulldogs. Nature of the assay: Respiratory timing from DIA moving average signals. As to conditions: 0.25 mg/kg, mean±SE, six dogs. From the text:
Respiratory timing variables were obtained from the DIA MA signals, using methods previously described to determine inspiratory time (T1), expiratory time (TE), total time of a respiratory burst (Ttot), and the duty cycle ratio (T1/Ttot) (Hendricks et al., 1987, J. Appl. Physiol. 63:1344-1350; Hendricks et al., 1991, Am Rev. Respir. Dis. 144:1112-1120).

Regarding `Cc1nc2sccn2c(=O)c1CCN1CCC(=C(c2ccc(F)cc2)c2ccc(F)cc2)CC1` [ritanserin], the “DIA peak amplitude as percentage of the baseline value” with English bulldogs [1] (0.25 mg/kg i.v.) was determined as 85.76±3.30%; in the assay with English bulldogs [1] (0.50 mg/kg i.v.) it was 95.22±5.81%; with English bulldogs [1] (0.75 mg/kg i.v. cumulative), 87.33±5.18%. In addition, the “DIA peak amplitude, mean” value came out at 15.03±2.45 arbitrary units in the assay on English bulldogs [1] (0.25 mg/kg i.v., mean±SE, six dogs, baseline 17.63±2.79); 16.12±2.30 arbitrary units in the assay with English bulldogs [1] (0.50 mg/kg i.v., mean±SE, baseline ritanserin 17.63±2.79, methysergide 7.07±2.37); 14.98±2.06 arbitrary units in the assay with English bulldogs [1] (0.75 mg/kg i.v. cumulative, mean±SE, six dogs, baseline 17.63±2.79). The “percent suppression of DIA activity” value with English bulldogs [1] (0.25 mg/kg i.v., mean±SE, quiet waking, dogs with GH data) amounted to 17.0±3.6%. The “mean SaO2” value in the assay on English bulldogs [2] (0.25 mg/kg i.v., baseline 92.1±0.6) worked out at 88.5±0.8%; with English bulldogs [2] (0.50 mg/kg i.v., baseline ritanserin 92.1±0.6, methysergide 90.3±2.7) it was 87.6±1.2%; in the assay on English bulldogs [2] (0.75 mg/kg i.v. cumulative, baseline 92.1±0.6), 88.6±0.5%. In addition, the “TI/Ttot (duty cycle ratio)” value in the assay with English bulldogs [3] (baseline 0.50±0.02, NS) is reported as 0.52 ± 0.02. The “TI (inspiratory time)” value with English bulldogs [3] (baseline 1.31±0.20, p 0.02) stood at 1.03 ± 0.17 s. In addition, in the assay on English bulldogs [3] (baseline 1.32±0.20, p 0.04), the “TE (expiratory time)” value is 1.00 ± 0.23 s. Moreover, in the assay with English bulldogs [3] (baseline 2.60±0.30, p 0.03), the “Ttot (total time of a respiratory burst)” value worked out at 2.02 ± 0.30 s.
